In PubChem BioAssay (NCI):
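Method: 48-hour compound exposure of cells in 96-well plates, five concentrations, linear interpolation of endpoints. GI50 marks 50% less growth. Definition used: TGI = concentration required for complete inhibition of growth.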

Columns and labels:
Experiment in all cases: growth of human tumour cells (NCI), 48 h
U251 CNS = tested on: U251 CNS
SNB-75 CNS = tested on: SNB-75 CNS
NCI-H23 lung = tested on: NCI-H23 lung
UO-31 renal = tested on: UO-31 renal
HT29 colon = tested on: HT29 colon
A549 NSCLC = tested on: A549 NSCLC
SK-OV-3 ovarian = tested on: SK-OV-3 ovarian
SK-MEL-5 melanoma = tested on: SK-MEL-5 melanoma
NCI-H226 lung = tested on: NCI-H226 lung
SF-295 CNS = tested on: SF-295 CNS

| SMILES | TGI (U251 CNS) | TGI (SNB-75 CNS) | GI50 (NCI-H23 lung) | TGI (NCI-H23 lung) | TGI (UO-31 renal) | TGI (HT29 colon) | GI50 (A549 NSCLC) | TGI (A549 NSCLC) | TGI (SK-OV-3 ovarian) | TGI (SK-MEL-5 melanoma) | TGI (NCI-H226 lung) | TGI (SF-295 CNS) | GI50 (U251 CNS) | GI50 (SNB-75 CNS) | GI50 (UO-31 renal) | GI50 (HT29 colon) | GI50 (SK-OV-3 ovarian) | GI50 (SK-MEL-5 melanoma) | GI50 (NCI-H226 lung) | GI50 (SF-295 CNS) |
| --- | --- | --- | --- | --- | --- | --- | --- | --- | --- | --- | --- | --- | --- | --- | --- | --- | --- | --- | --- | --- |
| O=C(N/N=C/c1cc(Cl)cc(Cl)c1[O-])c1ccccc1O.O=C(N/N=C/c1cc(Cl)cc(Cl)c1[O-])c1ccccc1O.[Ni+2] | 1.98 µM | 7.48 µM | 0.456 µM | 1.71 µM | 10.1 µM | 3.4 µM | 0.402 µM | 3.33 µM | 3.93 µM | 1.18 µM | 0.923 µM | 1.24 µM |  |  |  |  |  |  |  |  |
| O=C(NC1CCN(Cc2ccccc2)CC1)c1cc2nc(-c3ccc(Cl)s3)cc(C(F)(F)F)n2n1 | > 100 µM | > 100 µM | > 100 µM | > 100 µM | > 100 µM | > 100 µM | 79 µM | > 100 µM | > 100 µM | > 100 µM | > 100 µM | > 100 µM | 5.98 µM | 10.5 µM | > 100 µM | 3.14 µM | 61.6 µM | 6.34 µM | > 100 µM | > 100 µM |
| N#C[S-].[Nd+3].c1ccc(-c2ccccn2)nc1.c1ccc(-c2ccccn2)nc1.c1ccc(-c2ccccn2)nc1 | > 100 µM | 84.4 µM | 25.8 µM | 98.7 µM | 5.5 µM | > 100 µM | 4.94 µM | > 100 µM | > 100 µM | 4.77 µM | 7.52 µM | 5.8 µM | 4.18 µM | 5.69 µM | 2.19 µM | 4.83 µM | 6.93 µM | 1.53 µM | 2.89 µM | 2.35 µM |
